Results on 7 molecules are retold here after patent US6555523B1, “Use of cirsiliol and derivatives to treat infections” (priority 1999, dated 2003).

One data set relates to parainfluenza HA-1. The data set is described as follows: CPE-inhibition (microscopic) assay, Protocol A2. It counts as cell-based, parainfluenza virus. Conditions: HEp-2, cell Hep2 (cell blank for 3-(4′-bromophenyl) coumarin).
Data set [1] in a line: Drug cytotoxicity, Protocol A2 (microscopic). Conditions: human, Hep2 cell monolayers.
The next data set concerns HIV ROJO. The data set is described as follows: Anti-HIV assay in fresh human PBL (RT activity), Protocol D1. Conditions: Human immunodeficiency virus 1, PBMC.
A short description of data set [2]: in vitro. The settings on record: human, TC50.
A short description of data set [3]: in vitro. Conditions: dog.
In a further data set the test system is T, gondii RH. Nature of the data set: In-vitro anti Toxoplasma gondii activity in HFF, Protocol C. It counts as cell-based. How it is done: Protocol C—In-vitro testing of anti Toxoplasma gondii activity of Cirsiliol and Naringin. The compounds were tested in an in vitro cell culture assay utilizing human fibroblasts (HFF line) as the host cell. RH strain Toxoplasma gondii that has been transfected with β-galactosidase as a marker for quantitative detection of parasite number (RH Bgal), was used as the challenge organism. The compounds ere dissolved, and then diluted in cell culture medium at least 100 fold for the assays. Controls containing the maximum concentration of solvent used in the assay were run with each test. The active drugs were added and the monolayers were infected immediately at the beginning of each test. Extracellular T. gondii were removed by rinsing the monolayer, and infected host cells remained in contact with the cells for the entire test period. Each test was terminated when at least four parasite doublings could be visually identified in the control monolayers, and parasite numbers were quantitated by standard colorimetric assay for bet galactosidase activity with optical density at 550 nm as the readout. The optical density in this assay has a direct and linear correlation with parasite numbers over a 5-log parasite concentration. Toxicity in the host cells was determined by inspection for cytopathic effects and visual evaluation of cell growth.

In the next data set the test system is rhinovirus 14. The data set is described as follows: Anti-picornaviral virus yield assay, Protocol B. It counts as cell-based, Rhinovirus type 14. Conditions: Enterovirus.
Another data set deals with Influenza A. Nature of the data set: CPE-inhibition (microscopic) assay, Protocol A2. It counts as cell-based. Conditions: Influenza A virus, MDCK.
A further data set deals with toxoplasma. Nature of the data set: Inhibition of parasite levels in vivo, mice infected with 20 toxoplasma cysts. Also noted: species or system Mice (C57BL/6). The text has this: Inhibition of parasite levels in vivo. Mice (C57BL/6) were infected with 20 toxoplasma cysts and then treated with cirsiliol or control vehicle (0.1% DMSO). After the treatment, the level of toxoplasma cysts in the brain was reduced (about 1.5-2 fold) by the cirsiliol treatment compared to the control.

A short description of data set [4]: Drug cytotoxicity by XTT in PBL, Protocol D1. The settings on record: human, TC50, PBMC, printed on each HIV isolate line. (Tetrazolium assays rely on reduction of a dye to a coloured formazan, in cell work by metabolically active cells.)
The subject of data set [5] is Bovine Viral Diarrhea Virus. The data set is described as follows: Plaque formation by Bovine Viral Diarrhea Virus in MDBK cultures. The settings on record: for % Reduction: plaques; for Number of plaques: Tests 1-3, control 68. It counts as cell-based, bovine viral diarrhea virus (BVDV). The protocol: HCV in vitro assays. No well-accepted model exists for HCV and new compounds for use in the treatment of HCV are frequently tested for activity against bovine viral diarrhea virus (BVDV), a virus which is related to HCV.
A representative compound according to the present invention, naringin (i.e., 7-neohesperidoside, 5, 4′ dihydroxyflavanone) was tested for anti-BVDV activity in MDBK cells.

The next data set relates to MDBK cells. The data set is described as follows: Cytotoxicity in MDBK cultures (BVDV test). The settings on record: at 10.000 μg/mL, no toxicity at lower concentrations.
The nature of data set [6]: Drug solubility observed in the BVDV test. The settings on record: BVDV test in MDBK cultures; naringin solvent EtOH.
In a further data set the test system is HIV clade B BR/92/014. Nature of the data set: Anti-HIV assay in fresh human PBL (RT activity), Protocol D1. Conditions: Human immunodeficiency virus 1, PBMC.
For the next data set, the system named is HIV Merck 1064-52. The description is as above. The settings on record: Human immunodeficiency virus 1, PBMC.
The subject of another data set is HIV Merck 1022-48. The description is as above. It counts as cell-based. The settings on record: Human immunodeficiency virus 1, PBMC.
The next data set relates to HIV Merck 144-44. The data set is described as above. The settings on record: Human immunodeficiency virus 1, PBMC.
The next data set has as its system HIV clade F BR/92/021. Described as above. The settings on record: Human immunodeficiency virus 1, PBMC.
A short description of data set [7]: Drug cytotoxicity by XTT in monocyte-macrophages, Protocol D2. It counts as cell-based. Conditions: human; macrophage; Protocol D2; read-out: TC50.
Experimental: Protocol D2—Assay in fresh human monocyte-macrophages. […] The cells are placed in a 96-well microtiter plate at 37° C. for 2 hours. Non-adherent cells are removed by vigorously washing six times. […] The cultures are carefully monitored for confluency during this incubation period. Infection of the cells is performed with monocytotropic HIV-1 isolates. […] Monocytemacrophage monolayers are infected at a multiplicity of infection (“MOI”) of 0.1.
(§1) At 2 days post-infection, the medium is decanted and the cultures washed twice with complete medium in order to remove excess virus. Fresh medium alone or medium containing the appropriate concentration of drug is added and incubation continued for an additional five days. XTT staining for cytotoxicity and HIV p24 ELISA assays for production of p24 core antigen are performed on Day 7 post infection. This is performed according the ELISA kit assay manufacturers recommendations. Control curves are generated in each assay to accurately quantitate the amount of capsid protein in each sample. Data is obtained by spectrophotometric analysis at 450 nm using a Molecular Devices Vmax plate reader. P24 concentrations are calculated form the optical density values by use of the Molecular Device software package Soft Max.
The test system of the next data set is HIV Merck 1002-60. Nature of the data set: Anti-HIV assay in fresh human PBL (RT activity), Protocol D1. The settings on record: Human immunodeficiency virus 1, PBMC.
For the next data set, the system named is HIV clade E THA/93/073. Described as above. The settings on record: Human immunodeficiency virus 1, PBMC.
A further data set deals with HIV Merck 1026-60. Described as above. Conditions: Human immunodeficiency virus 1, PBMC.
Another data set deals with HIV Merck 52-52. The description is as above. Conditions: Human immunodeficiency virus 1, PBMC.
In another data set the test system is HIV clade A UG/93/037. Described as above. The settings on record: Human immunodeficiency virus 1, PBMC.
Another data set concerns HIV Ba-L. Nature of the data set: Anti-HIV assay in fresh human monocyte-macrophages (p24 ELISA), Protocol D2. It counts as cell-based. Conditions: Human immunodeficiency virus 1, BAL, Macrophage, Protocol D2. On the technique in general: ELISA stands for enzyme-linked immunosorbent assay.

Values after ≈ are worked out from the molar mass of the structure shown. Values joined by “and” are separate entries in the source; they are usually repeats but may differ in a detail not shown here. Equal values may be shown once. Marks after values point to notes of the source that are not given here.

Experimental for HIV Ba-L: Protocol D2—Assay in fresh human monocyte-macrophages. […] The cells are placed in a 96-well microtiter plate at 37° C. for 2 hours. Non-adherent cells are removed by vigorously washing six times. […] The cultures are carefully monitored for confluency during this incubation period. Infection of the cells is performed with monocytotropic HIV-1 isolates. High titer pools of each of these viruses are harvested from infected cultures of peripheral blood adherent cells and frozen in 1.0 ml aliquots at −80° C. Monocytemacrophage monolayers are infected at a multiplicity of infection (“MOI”) of 0.1.
as §1
Most of the values were based on average values that were obtained from duplicate or triplicate assay wells.
Experimental for MDBK cells: As a comparison, similar tests were conducted using ribavirin.

For orientation: IC50 means the midpoint of a concentration-inhibition curve. With `O=c1oc2ccccc2cc1-c1ccc(Br)cc1` [3-(4′-Bromophenyl) coumarin, 3-(4′-bromophenyl) coumarin], in the data set on parainfluenza HA-1, the midpoint of inhibition, the IC50, lay at 6.3 µM. Besides, in [1], the CC50 came out at 100 µM.

`O=c1cc(-c2ccccc2)oc2ccc(O)cc12` [6-Hydroxyflavone, 6-hydroxyflavone] yielded a concentration for half-maximal inhibition (IC50) in the data set on HIV ROJO of 41.8 µM. The same molecule displayed a CC50 in “in vitro [2]” of 53.9 µM.

Take `COc1cc2oc(-c3ccc(O)c(O)c3)cc(=O)c2c(O)c1OC` [Cirsiliol, 6,7′-dimethoxy-5,3′,4′-trihydroxyflavone]: the CC50 in “in vitro [3]” is less than 6.3 µM; in data set [1], 12.5 µM. Further, the IC50 with T, gondii RH was roughly 2 µM; in the data set with rhinovirus 14, roughly 3 µM; in the data set with Influenza A, greater than 200 µM; with parainfluenza HA-1, 7.8 µM. Also, the “survival of toxoplasmosis infection” value with toxoplasma (8 mice, 21-day post infection follow up, 4 of 8 vehicle control mice died by 15 days) is given as “all 8 cirsiliol treated mice survived”. For the same molecule, in the data set on toxoplasma (C57BL/6 mice, 20 toxoplasma cysts, control vehicle 0.1% DMSO), the “level of toxoplasma cysts in the brain reduced compared to the control” value was 1.5-2 fold.

With `O=c1cc(-c2ccccc2)oc2ccccc12` [Flavone, flavone], half-maximal inhibition in the data set on HIV ROJO (IC50) required 86.6 µM. Also, the CC50 in “in vitro [2]” is 173 µM.

With `COc1ccc([C@@H]2CC(=O)c3c(O)cc(O)cc3O2)cc1O` [Hesperetin, hesperetin], half-maximal inhibition with HIV ROJO (IC50) required 134 µM. The CC50 in data set [4] worked out at 190 µM.

Turning to `NC(=O)c1ncn([C@@H]2O[C@H](CO)[C@@H](O)[C@H]2O)n1` [Ribavirin, ribavirin, reference compound], the ID50 in [5] (BVDV plaque formation in MDBK, table footnote, unit from the table's concentration head) was found to be 1.24 µg/mL (≈ 5.08 µM). Further, the “% Reduction” value is given as 14.10% in [5] (ribavirin 0.320 μg/mL); 38.99% in data set [5] (ribavirin 1.000 μg/mL); 93.65% in data set [5] (ribavirin 3.200 μg/mL); 100.00* % in data set [5] (ribavirin 10.000 μg/mL, partial toxicity to the cells). Also, the “Number of plaques” value in [5] (ribavirin 0.320 μg/mL) was 55 and 62 and 59; in data set [5] (ribavirin 1.000 μg/mL), 36 and 42 and 47; in [5] (ribavirin 3.200 μg/mL) it was 4 and 5; in [5] (ribavirin 10.000 μg/mL), 0. The “toxicity to the cells” value in the data set with MDBK cells is “*Partial toxicity to the cells was observed with no toxicity at lower concentrations”. The drug solubility observation result in data set [6] was “Comment: Positive control drug. Drug was soluble in medium”.

Turning to `COc1ccc(-c2cc(=O)c3c(OC)c(OC)c(OC)c(OC)c3o2)cc1` [Tangeretin, tangeretin], the IC50 in the data set on HIV clade B BR/92/014 came to 12.3 µM; in the data set on HIV Merck 1064-52, 15 µM; in the data set with HIV Merck 1022-48, 20.8 µM; in the data set on HIV Merck 144-44, 14.7 µM; in the data set on HIV clade F BR/92/021 it was 15.7 µM; with HIV Merck 1002-60, 9.7 µM. Also, the IC50 was 15.3 µM in the data set on HIV clade E THA/93/073; 19.8 µM with HIV Merck 1026-60; 18.2 µM in the data set on HIV Merck 52-52; 19.4 µM with HIV clade A UG/93/037; greater than 100 µM in the data set with HIV Ba-L. For the same molecule, the CC50 at 7 days in [7] was greater than 100 µM.
